Assay results from patent publication US20100120879A1, “INSECTICIDES AS SAFENER FOR FUNGICIDES WITH PHYTOTOXIC ACTION” (priority 2007, published 2010).

Legend:
[1] = test system: wheat; details: wheat treated with the azole fungicide; F. Montfort et al., Pesticide Science 46(4), 1996; cited from earlier work
[2] = test system: soybeans, variety "Conquista"; experiment: Vitality of the plants 14 days after sowing (visual score); details: visual scale 0 to 10, untreated = 5, each point = 20% improvement or deterioration, triticonazole 50 g, fipronil 50 g, gibberellic acid 1 g a.s. per 100 kg seeds
[3] = test system: Phakopsora pachyrhizi; experiment: Fungicidal activity against soybean rust after seed treatment; type: in vivo; details: triticonazole 50 g, fipronil 50 g, gibberellic acid 1 g a.s. per 100 kg seeds

In the case of CC1(C)CCC(=Cc2ccc(Cl)cc2)C1(O)Cn1cncn1 (centres unmarked) [Triticonazole, triticonazole], the “Longitudinal growth of treated wheat” value [1] is given as “greatly reduced longitudinal growth”, the Vitality [2] is given as 2 and the “Infection (percentage of diseased leaf area)” value ([3]; leaves in the middle part of the plant, 35 days after sowing, untreated 10.5) is given as 9%. For the same compound, the “Infection (percentage of diseased leaf area)” value ([3]; lower part of the plant, 21 days after sowing, untreated 8.5) was 0% and the “Infection (percentage of diseased leaf area)” value ([3]; lower part of the plant, 35 days after sowing, untreated 70) was 47%.
